System: mechanically-induced ARDS in rodents
Parameters: species or system male Sprague Dawley rats
Settings: rat, in vivo
Source text: The following protocol and experimental procedures were approved by the Thomas D Morris, Inc. Institutional Animal Care and Use Committee (Protocol #20-007) and are consistent with the National Institutes of Health guidelines for the humane treatment of laboratory animals. Study subjects were male Sprague Dawley rats (N=21; 250-300 g; 8-10 weeks old; Charles River Laboratories, Inc., Wilmington, Mass. housed in pairs with a 12/12 day night cycle and provided ad libitum access to feed and water.
Animals were inducted with 1-5% isoflurane in air for initial preoperative preparation and cannulations. The anesthetic plane was maintained with a continuous intravenous infusion (0.1 mg/kg/min) into a femoral vein using a pre-filled syringe of alfaxalone acetate (Alfaxan, Schering-Plough Animal Health, Welwyn Garden City, UK) that was connected to a syringe pump (Genie Touch™, Kent Scientific, Torrington, Conn.). A second femoral vein was cannulated to be used for infusion of IV treatments. A femoral artery cannula was connected to a pressure transducer for continuous monitoring of arterial blood pressures (BIOPAC MP-150, BIOPAC Systems, Goleta, Calif.). The same femoral artery cannula was also used to collect blood samples for analysis of blood gases and chemistry (ABL90 Flex, Radiometer, Denmark). […]

Substance: poly-oxygenated aluminum hydroxide [Ox66™]
- supraphysiologic levels of PAO2 or sO2: did not show supraphysiologic levels of PAO2 or sO2
